Experimental data taken from ChEMBL document CHEMBL1129219, “Use of CoMFA in validating the conformation used in designing 4-(1H-benzimidazole-2-carbonyl)piperidines with H1/NK1 receptor antagonist activity” (Bioorg Med Chem Lett, 1997).

Target: Histamine H1 receptor (Homo sapiens, UniProt P35367)
Assay: Antagonistic activity against histamine H1 receptor
Format: functional

Sequence of Histamine H1 receptor (P35367 whole entry): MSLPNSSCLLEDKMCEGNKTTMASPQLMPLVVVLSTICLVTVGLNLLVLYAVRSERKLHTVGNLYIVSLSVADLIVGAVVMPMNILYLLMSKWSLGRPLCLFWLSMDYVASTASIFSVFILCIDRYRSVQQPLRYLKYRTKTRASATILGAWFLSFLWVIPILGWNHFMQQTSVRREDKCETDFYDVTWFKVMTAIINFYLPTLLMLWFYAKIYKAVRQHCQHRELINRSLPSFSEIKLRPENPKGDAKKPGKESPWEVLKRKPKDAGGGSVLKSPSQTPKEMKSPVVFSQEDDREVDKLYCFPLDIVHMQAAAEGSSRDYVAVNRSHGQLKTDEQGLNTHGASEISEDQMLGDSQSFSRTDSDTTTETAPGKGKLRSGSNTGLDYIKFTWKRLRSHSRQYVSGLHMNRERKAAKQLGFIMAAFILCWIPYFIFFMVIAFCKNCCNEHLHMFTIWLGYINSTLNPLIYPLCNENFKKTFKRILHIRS

COc1cc(C(=O)N2CCC(CCN3CCC(C(=O)c4nc5ccccc5n4Cc4ccc(F)cc4)CC3)(c3ccc(F)cc3F)C2)cc(OC)c1OC (stereo not drawn) gave an IC50 of 0.437 µM.
COc1ccc(C2(CCN3CCC(C(=O)c4nc5ccccc5n4Cc4ccc(C(=O)O)cc4)CC3)CCN(C(=O)c3cc(OC)c(OC)c(OC)c3)C2)cc1OC (stereo not drawn) gave an IC50 of 27.5 µM.
In the case of CCOC(=O)CCCn1c(C(=O)C2CCN(CCC3(c4ccc(Cl)c(Cl)c4)CCN(C(=O)c4cc(OC)c(OC)c(OC)c4)C3)CC2)nc2ccccc21 (stereo not drawn), the IC50 is reported as 0.955 µM.
CC(C)Oc1cccc(CC(=O)N2CCC(CCN3CCC(C(=O)c4nc5ccccc5n4Cc4ccc(F)cc4)CC3)(c3ccc4c(c3)OCO4)C2)c1 (stereo not drawn) showed an IC50 of 0.251 µM.
Molecule COc1cc(C(=O)N2CCC(CCN3CCC(C(=O)c4nc5ccccc5n4Cc4ccc(F)cc4)CC3)(c3ccc4c(c3)OCO4)C2)cc(OC)c1OC (stereo not drawn) has an IC50 of 0.204 µM.
With COc1cc(C(=O)N2CCC(CCN3CCC(C(=O)c4nc5ccccc5[nH]4)CC3)(c3ccc(Cl)c(Cl)c3)C2)cc(OC)c1OC (stereo not drawn) the IC50 was 0.407 µM.
Molecule CCOCCn1c(C(=O)C2CCN(CCC3(c4ccccc4)CCN(C(=O)c4cc(OC)c(OC)c(OC)c4)C3)CC2)nc2ccccc21 (stereo not drawn) has an IC50 of 0.38 µM.
In the case of COc1ccc(C2(CCN3CCC(C(=O)c4nc5ccccc5n4Cc4ccc(F)cc4)CC3)CCN(C(=O)c3ccccc3)C2)cc1OC (stereo not drawn), the IC50 is reported as 0.24 µM.
Molecule CCOCCn1c(C(=O)C2CCN(CCC3(c4ccc(OC)c(OC)c4)CCN(C(=O)c4cc(OC)c(OC)c(OC)c4)C3)CC2)nc2ccccc21 (stereo not drawn) has an IC50 of 0.631 µM.
Molecule COC(=O)c1ccc(Cn2c(C(=O)C3CCN(CCC4(c5ccccc5)CCN(C(=O)c5cc(OC)c(OC)c(OC)c5)C4)CC3)nc3ccccc32)cc1 (stereo not drawn) has an IC50 of 1.17 µM.
COc1cc(C(=O)N2CCCC(CCN3CCC(C(=O)c4nc5ccccc5n4Cc4ccc(F)cc4)CC3)(c3ccc(Cl)c(Cl)c3)C2)cc(OC)c1OC (stereo not drawn) showed an IC50 of 0.214 µM.
For COc1cc(C(=O)N2CCC(CCN3CCC(C(=O)c4nc5ccccc5n4Cc4cccnc4)CC3)(c3ccccc3)C2)cc(OC)c1OC (stereo not drawn), the IC50 was 0.417 µM.
For CCOc1cc(C(=O)N2CCC(CCN3CCC(C(=O)c4nc5ccccc5n4Cc4ccc(F)cc4)CC3)(c3ccc(OC)c(OC)c3)C2)cc(OCC)c1OCC (stereo not drawn), the IC50 was 0.158 µM.
In the case of COc1cc(C(=O)N2CCC(CCN3CCC(C(=O)c4nc5ccccc5[nH]4)CC3)(c3ccccc3)C2)cc(OC)c1OC (stereo not drawn), the IC50 is reported as 0.501 µM.
COc1cc(C(=O)N2CCC(CCN3CCC(C(=O)c4nc5ccccc5n4Cc4ccncc4)CC3)(c3ccccc3)C2)cc(OC)c1OC (stereo not drawn) was tested, and the IC50 was 0.282 µM.
Molecule COc1cc(C(=O)N2CCC(CCN3CCC(C(=O)c4nc5ccccc5n4Cc4ccc(C(=O)O)cc4)CC3)(c3ccccc3)C2)cc(OC)c1OC (stereo not drawn) has an IC50 of 33.9 µM.
COc1cc(C(=O)N2CCC(CCN3CCC(C(=O)c4nc5ccccc5n4CCCCOc4ccccc4C(=O)O)CC3)(c3ccccc3)C2)cc(OC)c1OC (stereo not drawn) was tested, and the IC50 was 9.12 µM.
With COc1ccc(C2(CCN3CCC(C(=O)c4nc5ccccc5n4Cc4ccccn4)CC3)CCN(C(=O)c3cc(OC)c(OC)c(OC)c3)C2)cc1 (stereo not drawn) the IC50 was 0.501 µM.
COc1ccc(C2(CCN3CCC(C(=O)c4nc5ccccc5n4Cc4ccc(F)cc4)CC3)CCN(C(=O)c3cc(OC)c(OC)c(OC)c3)C2)cc1OC (stereo not drawn) was tested, and the IC50 was 0.331 µM.
For COc1cc(C(=O)N2CCC(CCN3CCC(C(=O)c4nc5ccccc5n4Cc4ccccn4)CC3)(c3ccc(F)cc3)C2)cc(OC)c1OC (stereo not drawn), the IC50 was 0.562 µM.
Work on COc1ccc(C(=O)N2CCC(CCN3CCC(C(=O)c4nc5ccccc5n4Cc4ccc(F)cc4)CC3)(c3ccc4c(c3)OCO4)C2)c(OC)c1OC (stereo not drawn) yielded an IC50 of 0.257 µM.
COc1cc(C(=O)N2CCC(CCN3CCC(C(=O)c4nc5ccccc5n4CCCC(=O)O)CC3)(c3ccc(Cl)c(Cl)c3)C2)cc(OC)c1OC (stereo not drawn) showed an IC50 of 10 µM.
With COc1cc(C(=O)N2CCC(CCN3CCC(C(=O)c4nc5ccccc5n4Cc4ccc(F)cc4)CC3)(c3ccc(C(F)(F)F)cc3)C2)cc(OC)c1OC (stereo not drawn) the IC50 was 0.468 µM.
For CCOCCn1c(C(=O)C2CCN(CCC3(c4ccc(F)cc4)CCN(Cc4cc(OC)c(OC)c(OC)c4)C3=O)CC2)nc2ccccc21 (stereo not drawn), the IC50 was 0.251 µM.
For COC(=O)c1ccccc1OCCCn1c(C(=O)C2CCN(CCC3(c4ccccc4)CCN(C(=O)c4cc(OC)c(OC)c(OC)c4)C3)CC2)nc2ccccc21 (stereo not drawn), the IC50 was 1 µM.
In the case of COc1ccc(CCN2CCC(C(=O)c3nc4ccccc4n3Cc3ccc(F)cc3)CC2)cc1, the IC50 is reported as 0.0589 µM.
Work on COc1cc(C(=O)N2CCC(CCN3CCC(C(=O)c4nc5ccccc5n4CCOCc4ccco4)CC3)(c3ccccc3)C2)cc(OC)c1OC (stereo not drawn) yielded an IC50 of 0.447 µM.
With COc1cc(C(=O)N2CCC(CCN3CCC(C(=O)c4nc5ccccc5n4Cc4ccccn4)CC3)(c3ccc(Cl)c(Cl)c3)C2)cc(OC)c1OC (stereo not drawn) the IC50 was 0.437 µM.
COc1cc(C(=O)N2CCC(CCN3CCC(C(=O)c4nc5ccccc5n4Cc4ccco4)CC3)(c3ccccc3)C2)cc(OC)c1OC (stereo not drawn) gave an IC50 of 0.295 µM.
Work on COC(=O)c1ccc(Cn2c(C(=O)C3CCN(CCC4(c5ccc(OC)c(OC)c5)CCN(C(=O)c5cc(OC)c(OC)c(OC)c5)C4)CC3)nc3ccccc32)cc1 (stereo not drawn) yielded an IC50 of 0.955 µM.
For CCOCCn1c(C(=O)C2CCN(CCC3(c4ccc(Cl)c(Cl)c4)CCN(C(=O)c4cc(OC)c(OC)c(OC)c4)C3)CC2)nc2ccccc21 (stereo not drawn), the IC50 was 0.339 µM.
COc1ccc(C2(CCN3CCC(C(=O)c4nc5ccccc5[nH]4)CC3)CCN(C(=O)c3cc(OC)c(OC)c(OC)c3)C2)cc1OC (stereo not drawn) gave an IC50 of 1.95 µM.
With COc1cc(C(=O)N2CCC(CCN3CCC(C(=O)c4nc5ccccc5n4Cc4ccccn4)CC3)(c3ccccc3)C2)cc(OC)c1OC (stereo not drawn) the IC50 was 0.363 µM.
O=C(c1nc2ccccc2n1Cc1ccc(F)cc1)C1CCN(CCC2(c3ccc4c(c3)OCO4)CCN(C(=O)c3ccc(Cl)cc3Cl)C2)CC1 (stereo not drawn) gave an IC50 of 0.129 µM.
COc1cc(C(=O)N2CCC(CCN3CCC(C(=O)c4nc5ccccc5n4CCN4CCOCC4)CC3)(c3ccc(Cl)c(Cl)c3)C2)cc(OC)c1OC (stereo not drawn) was tested, and the IC50 was 0.55 µM.
COc1cc(C(=O)N2CCC(CCN3CCC(C(=O)c4nc5ccccc5n4Cc4ccc(F)cc4)CC3)(c3ccc(Cl)c(Cl)c3)C2)cc(OC)c1OC (stereo not drawn) gave an IC50 of 0.282 µM.
COc1ccc(CCN2CCC(=Nc3nc4ccccc4n3Cc3ccc(F)cc3)CC2)cc1 gave an IC50 of 0.0468 µM.
With COc1cc(C(=O)N2CCC(CCN3CCC(C(=O)c4nc5ccccc5n4Cc4ccc(F)cc4)CC3)(c3ccccc3)C2)cc(OC)c1OC (stereo not drawn) the IC50 was 0.234 µM.
